Reference: ChEMBL document CHEMBL1158943, “Chemistry of Sponges, XI. 22-Deoxyvariabilin, a New Sesterterpene from the Sponge Thorecta sp” (J Nat Prod, 1991)
Activity calls are given as the source filed them.

Experiments:
Type in all cases: functional, organism-based
Candida albicans = experiment: Antimicrobial activity against Candida albicans at 100 ug/disk by standard disk method
Bacillus subtilis = experiment: Antimicrobial activity against Bacillus subtilis at 50 ug/disk by standard disk method
Staphylococcus aureus = experiment: Antimicrobial activity against Staphylococcus aureus at 100 ug/disk by standard disk method

Measured: Activity

CC1=C/C(=C/[C@@H](C)CCC/C(C)=C/CC/C(C)=C/CCc2ccoc2)OC1=O
active: all assays above
